Source: PMC9785492 (Viruses, 2022)

Test system: A/PR/8/34 with NA-H274Y
Type: cell-based, Influenza A virus (H1N1)

How did the IC50 turn out when `COC(=O)C1=C(C)NC(C)=C(C(=O)OCC(C)C)C1c1ccccc1[N+](=O)[O-]` (stereo not shown) [Nisoldipine] was run?
The IC50 was 5.94 ± 0.55 µM.
